Reference: patent US11034658B2, “Pyridinyl pyrazoles as modulators of RORγT” (Janssen Pharmaceutica NV, priority 2018, dated 2021)

How the values were obtained:
[1] = molecular target: human RORγt ligand binding domain (RORγt LBD) (Homo sapiens (Human), UniProt P51449); experiment: RORγt ThermoFluor assay
Description: ThermoFluor® is a fluorescence based assay that estimates ligand binding affinities by measuring the effect of a ligand on protein thermal stability (Pantoliano, M. W., Petrella, E. C., Kwasnoski, J. D., Lobanov, V. S., Myslik, J., Graf, E., Carver, T., Asel, E., Springer, B. A., Lane, P., and Salemme, F. R. (2001) High-density miniaturized thermal shift assays as a general strategy for drug discovery. J Biomol Screen 6, 429-40, and Matulis, D., Kranz, J. K., Salemme, F. R., and Todd, M. J. (2005) Thermodynamic stability of carbonic anhydrase: measurements of binding affinity and stoichiometry using ThermoFluor. Biochemistry 44, 5258-66). This approach is applicable to a wide variety of systems, and rigorous in theoretical interpretation through quantitation of equilibrium binding constants (KD).
The shift in the melting point described as a ΔTm is proportional to the concentration and affinity of the ligand. The compound potency may be compared as a rank order of either values at a single compound concentration or in terms of KD values, estimated from concentration response curves.
RORγt ThermoFluor® Assay Construct
For the RORγt construct used in the ThermoFluor® assay, numbering for the nucleotide sequences was based on the reference sequence for human RORγt, transcript variant 2, NCBI Accession: NM 001001523.1 (SEQ ID NO:1). Nucleotides 850-1635 (SEQ ID NO:2) coding for the wild type human RORγt ligand binding domain (RORγt LBD) were cloned into the pHIS1 vector, a modified pET E. coli expression vector (Accelagen, San Diego), containing an in-frame N-terminal His-tag and a TurboTEV protease cleavage site (ENLYFQG, SEQ ID NO:3) upstream of the cloned insert sequence. The amino acid sequence for the RORγt construct used in the Thermofluor® assay is shown as SEQ ID NO:4.
ThermoFluor® experiments were carried out using instruments owned by Janssen Research and Development, L.L.C. through its acquisition of 3-Dimensional Pharmaceuticals, Inc. 1,8-ANS (Invitrogen) was used as a fluorescent dye. Protein and compound solutions are dispensed into black 384-well polypropylene PCR microplates (Abgene) and overlayed with silicone oil (1 μL, Fluka, type DC 200) to prevent evaporation.
Bar-coded assay plates are robotically loaded onto a thermostatically controlled PCR-type thermal block and then heated at a typical ramp-rate of 1° C./min for all experiments. Fluorescence was measured by continuous illumination with UV light (Hamamatsu LC6) supplied via fiber optic and filtered through a band-pass filter (380-400 nm; >6 OD cutoff). Fluorescence emission of the entire 384-well plate was detected by measuring light intensity using a CCD camera (Sensys, Roper Scientific) filtered to detect 500±25 nm, resulting in simultaneous and independent readings of all 384 wells. Images were collected at each temperature, and the sum of the pixel intensity in a given area of the assay plate was recorded versus temperature. Reference wells contained RORγt without compounds, and the assay conditions were as follows:
Project compounds were arranged in a pre-dosed mother plate (Greiner Bio-one) wherein compounds are serially diluted in 100% DMSO by 1:2 from a high concentration of 10 mM over 12 columns within a series (column 12 is a reference well containing DMSO, no compound). The compounds were robotically dispensed directly into assay plates (1×=46 nL) using a Hummingbird capillary liquid handling instrument (Digilab). Following compound dispense, protein and dye in buffer was added to achieve the final assay volume of 3 μL, followed by 1 μL of silicone oil.
The binding affinity was estimated as described previously (Matulis, D., Kranz, J. K., Salemme, F. R., and Todd, M. J. (2005) Thermodynamic stability of carbonic anhydrase: measurements of binding affinity and stoichiometry using ThermoFluor®. Biochemistry 44, 5258-66) using the following thermodynamic parameters of protein unfolding:
Reference RORγt Tm: 47.8° C.

[2] = molecular target: full-length human RORγt (GAL4-DBD-RORγt fusion) in HEK293T cells (Homo sapiens (Human), UniProt P51449); experiment: RORγt (full-length human) reporter assay, conditions A or B; type: cell-based; conditions: for IC50: HEK293T cells, read-out: RORγt (FL) Reporter Assay A or B, IC50; for inhibition at 3 µM / inhibition at 1 µM: HEK-293T, read-out: RORγt (FL) Reporter Assay A or B, % inhibition; for inhibition at 3 µM: 3 μM compound concentration (footnote *); for inhibition at 1 µM: 1 μM compound concentration (footnote ***)
Procedure: RORγt (Full-Length Human) Reporter Assay:
(§1) HEK293T cells were plated at 35,000 per well in 96-well plate in medium of DMEM with 10% FBS. […] After overnight (16 to 20 hours) incubation, media were removed and cells were lysed with 50 μL Glo Lysis Buffer (Promega) for 10-15 minutes followed by 10 minute incubation with 50 μL Dual Glo reagent (Promega) at room temperature. Firefly luciferase luminescence was measured using a BMG Pherastar plate reader. To each well, 50 μL Stop and Glo reagent was added and incubated for 10 minutes at room temperature. Renilla luminescence was measured using a BMG Pherastar plate reader. To calculate the effect of compounds on RORγt activity, firefly values were normalized against values of DMSO only and values of reference compound at saturating concentration, then further normalized against Renilla signals. IC50s were generated by plotting final Renilla normalized data against compound concentration and percent inhibition was calculated against DMSO control.
as §1, with “at 8750 cells” for “at 35,000”, “in 384-well” for “in 96-well”, “with 20” for “with 50”, “well, 20” for “well, 50”

human RORγt ligand binding domain (RORγt LBD), sequence (P51449 other isoform, or with tags, fused parts or gaps): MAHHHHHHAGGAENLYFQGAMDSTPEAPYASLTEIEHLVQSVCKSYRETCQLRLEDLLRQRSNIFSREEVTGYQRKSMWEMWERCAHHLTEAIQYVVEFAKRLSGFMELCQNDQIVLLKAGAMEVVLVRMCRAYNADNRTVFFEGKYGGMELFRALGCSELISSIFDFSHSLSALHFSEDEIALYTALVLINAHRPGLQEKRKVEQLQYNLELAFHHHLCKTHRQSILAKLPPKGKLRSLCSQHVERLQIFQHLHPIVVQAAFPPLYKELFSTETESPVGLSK
full-length human RORγt (GAL4-DBD-RORγt fusion) in HEK293T cells, sequence (P51449 other isoform, or with tags, fused parts or gaps): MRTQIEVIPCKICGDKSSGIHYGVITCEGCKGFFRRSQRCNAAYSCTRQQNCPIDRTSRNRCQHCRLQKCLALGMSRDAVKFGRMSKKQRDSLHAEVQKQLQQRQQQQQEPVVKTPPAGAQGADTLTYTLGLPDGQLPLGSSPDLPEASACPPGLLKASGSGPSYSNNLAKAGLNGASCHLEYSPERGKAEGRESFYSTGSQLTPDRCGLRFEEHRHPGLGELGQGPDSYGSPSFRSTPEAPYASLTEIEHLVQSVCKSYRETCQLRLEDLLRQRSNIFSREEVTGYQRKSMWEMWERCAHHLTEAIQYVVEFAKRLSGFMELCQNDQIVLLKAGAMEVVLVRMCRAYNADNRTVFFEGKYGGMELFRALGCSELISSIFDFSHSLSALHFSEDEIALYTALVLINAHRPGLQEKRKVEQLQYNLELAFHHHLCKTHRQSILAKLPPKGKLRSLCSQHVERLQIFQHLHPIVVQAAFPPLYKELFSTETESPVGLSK

## CCn1nc(C(=O)NC[C@H]2CC[C@H](S(N)(=O)=O)CC2)c(Cl)c1-c1cnc(CC(C)(C)C(F)(F)F)cc1OC(F)F [Example 11, 4-chloro-5-(4-(difluoromethoxy)-6-(3,3,3-trifluoro-2,2-dimethylpropyl)pyridin-3-yl)-1-ethyl-N-(((1r,4r)-4-sulfamoylcyclohexyl)methyl)-1H-pyrazole-3-carboxamide]
[1]
  Kd: 1.4 nM
[2]
  IC50: 23 nM
  inhibition at 3 µM: 108%

## CCn1nc(C(=O)NC[C@H]2CC[C@H](S(N)(=O)=O)CC2)c(C)c1-c1cnc(CC(C)(C)C(F)(F)F)cc1OC(F)F [Example 12, 5-(4-(Difluoromethoxy)-6-(3,3,3-trifluoro-2,2-dimethylpropyl)pyridin-3-yl)-1-ethyl-4-methyl-N-(((1r,4r)-4-sulfamoylcyclohexyl)methyl)-1H-pyrazole-3-carboxamide]
[1]
  Kd: 4.3 nM
[2]
  IC50: 29 nM
  inhibition at 3 µM: 110%

## CCn1nc(C(=O)NC[C@H]2CC[C@H](S(C)(=O)=O)CC2)c(Cl)c1-c1cnc(CC(C(F)(F)F)C(F)(F)F)cc1OC(F)F [Example 21, 4-Chloro-5-(4-(difluoromethoxy)-6-(3,3,3-trifluoro-2-(trifluoromethyl)propyl)pyridin-3-yl)-1-ethyl-N-(((1r,4r)-4-(methylsulfonyl)cyclohexyl)methyl)-1H-pyrazole-3-carboxamide]
[1]
  Kd: 1.2 nM
[2]
  IC50: 20 nM
  inhibition at 1 µM: 120%

## CCn1nc(C(=O)NC[C@]2(O)CC[C@@H](S(C)(=O)=O)CC2)c(Cl)c1-c1cnc(CC(C(F)(F)F)C(F)(F)F)cc1OC(F)F [Example 22, 4-Chloro-5-(4-(difluoromethoxy)-6-(3,3,3-trifluoro-2-(trifluoromethyl)propyl)pyridin-3-yl)-1-ethyl-N-(((1s,4s)-1-hydroxy-4-(methylsulfonyl)cyclohexyl)methyl)-1H-pyrazole-3-carboxamide]
[1]
  Kd: 6.4 nM
[2]
  IC50: 46 nM
  inhibition at 1 µM: 115%

## CCn1nc(C(=O)NC[C@H]2CC[C@H](S(C)(=O)=O)CC2)c(C)c1-c1cnc(CC(C(F)(F)F)C(F)(F)F)cc1OC(F)F [Example 23, 5-(4-(Difluoromethoxy)-6-(3,3,3-trifluoro-2-(trifluoromethyl)propyl)pyridin-3-yl)-1-ethyl-4-methyl-N-(((1r,4r)-4-(methylsulfonyl)cyclohexyl)methyl)-1H-pyrazole-3-carboxamide]
[1]
  Kd: 2.5 nM
[2]
  IC50: 15 nM
  inhibition at 3 µM: 100%

## CCn1nc(C(=O)NC[C@]2(O)CC[C@@H](S(C)(=O)=O)CC2)c(C)c1-c1cnc(CC(C(F)(F)F)C(F)(F)F)cc1OC(F)F [Example 24, 5-(4-(Difluoromethoxy)-6-(3,3,3-trifluoro-2-(trifluoromethyl)propyl)pyridin-3-yl)-1-ethyl-N-(((1s,4s)-1-hydroxy-4-(methylsulfonyl)cyclohexyl)methyl)-4-methyl-1H-pyrazole-3-carboxamide]
[1]
  Kd: 8.9 nM
[2]
  IC50: 63 nM
  inhibition at 3 µM: 113%

## CCn1nc(C(=O)NC[C@H]2CC[C@H](S(C)(=O)=O)CC2)c(Cl)c1-c1cnc(CC(C)(C)C(F)(F)F)cc1C(C)C [Example 25]
[1]
  Kd: 15 nM
[2]
  IC50: 340 nM
  inhibition at 3 µM: 94%

## CCn1nc(C(=O)NC[C@H]2CC[C@H](S(C)(=O)=O)CC2)c(Cl)c1-c1cnc(CC(C)(C)C(F)(F)F)cc1C(F)F [Example 26, 4-Chloro-5-(4-(difluoromethyl)-6-(3,3,3-trifluoro-2,2-dimethylpropyl)pyridin-3-yl)-1-ethyl-N-(((1r,4r)-4-(methylsulfonyl)cyclohexyl)methyl)-1H-pyrazole-3-carboxamide]
[1]
  Kd: 17 nM
[2]
  IC50: 14 nM
  inhibition at 3 µM: 88%

## CCn1nc(C(=O)NC[C@]2(O)CC[C@@H](S(C)(=O)=O)CC2)c(Cl)c1-c1cnc(CC(C)(C)C(F)(F)F)cc1C(F)F [Example 27, 4-Chloro-5-(4-(difluoromethyl)-6-(3,3,3-trifluoro-2,2-dimethylpropyl)pyridin-3-yl)-1-ethyl-N-(((1s,4s)-1-hydroxy-4-(methylsulfonyl)cyclohexyl)methyl)-1H-pyrazole-3-carboxamide]
[1]
  Kd: 47 nM
[2]
  IC50: 130 nM
  inhibition at 3 µM: 20%

## CCn1nc(C(=O)NC[C@]2(O)CC[C@@H](S(C)(=O)=O)CC2)c(C)c1-c1cnc(CC(C)(C)C(F)(F)F)cc1C(F)F [Example 28, 5-(4-(Difluoromethyl)-6-(3,3,3-trifluoro-2,2-dimethylpropyl)pyridin-3-yl)-1-ethyl-N-(((1s,4s)-1-hydroxy-4-(methylsulfonyl)cyclohexyl)methyl)-4-methyl-1H-pyrazole-3-carboxamide]
[1]
  Kd: 97 nM
[2]
  IC50: 2 nM
  inhibition at 3 µM: 76%

## Cn1nc(C(=O)NC[C@H]2CC[C@H](S(C)(=O)=O)CC2)c(Cl)c1-c1cnc(CC(C)(C)C(F)(F)F)cc1OC(F)F [Example 30, 4-Chloro-5-(4-(difluoromethoxy)-6-(3,3,3-trifluoro-2,2-dimethylpropyl)pyridin-3-yl)-1-methyl-N-(((1r,4r)-4-(methylsulfonyl)cyclohexyl)methyl)-1H-pyrazole-3-carboxamide]
[1]
  Kd: 10 nM
[2]
  IC50: 100 nM
  inhibition at 3 µM: 98%

## Cc1c(C(=O)NC[C@H]2CC[C@H](S(C)(=O)=O)CC2)nn(C)c1-c1cnc(CC(C)(C)C(F)(F)F)cc1OC(F)F [Example 31]
[1]
  Kd: 26 nM
[2]
  IC50: 160 nM
  inhibition at 1 µM: 100%

## CCn1nc(C(=O)NC[C@H]2CC[C@H](S(C)(=O)=O)CC2)c(Cl)c1-c1cnc(CCCC(F)(F)F)cc1OC(F)F [Example 32, 4-Chloro-5-(4-(difluoromethoxy)-6-(4,4,4-trifluorobutyl)pyridin-3-yl)-1-ethyl-N-(((1r,4r)-4-(methylsulfonyl)cyclohexyl)methyl)-1H-pyrazole-3-carboxamide]
[1]
  Kd: 18 nM
[2]
  IC50: 54 nM
  inhibition at 3 µM: 129%
